These molecules were tested on Bmi-1 protein (assay: Sandwich ELISA Assay: Bmi-1 protein level in HT-1080 cells treated with test compounds).
Assay type: cell-based
Protocol: Cell Seeding and Compound Treatment (Day 1):
HT-1080 cells were seeded at 8000 cells/well (50 μL) in 96-well tissue culture plates. After the cells became adherent (3-4 hours), 2× diluted stocks of test compounds in 50 μL DMEM containing 1% DMSO (final DMSO concentration was 0.5%) were added and the plates were incubated at 37° C. under 5% CO2 for 40-48 hours.
ELISA Plate First Antibody Preparation (Day 2):
The First Antibody (Millipore Mouse, monoclonal to mouse Bmi-1, clone F6, catalog #05-637) diluted to 2 μg/mL in PBS was added (100 μL) to each well of a Nunc MaxiSorp 96-well ELISA plate. The plate was covered with a plate seal and allowed to stand overnight.
Cell Lysate Preparation (Day 3):
Fresh Lysis buffer (1×) was prepared on the day of the assay as follows: 1 mM EDTA, 150 mM NaCl, 0.5% Triton-X 100, 10 mM NaF, 20 mM B-Glycerophosphate, 1 mM DTT (in PBS, pH 7.2-7.4) and HALT protease inhibitor cocktail (1×) (Pierce #78410).
Lysis Buffer (1×, 40 μL) was added to each well and the plate was shaken for 5-10 minutes on an orbital shaker to allow cell lysis, then diluent (1% BSA in PBS in 0.5% NP40) (100 μL) was added to each well.
A standard curve was prepared at the following Bmi-1 concentrations: 8000, 4000, 2000, 1000, 500, 250, 125 and 0 pg/mL. The Bmi-1 Recombinant Protein Standard (Novus Biologicals PCGF4 Recombinant Protein (P01), catalog # H00000648-P01) used to prepare the standard curve was stored at −80° C. On first thaw, the Recombinant Protein Standard was diluted to 10 μg/μL in Blocking Buffer (1% BSA in PBS; BSA: Fisher Scientific Catalog #1600-100). Aliquots were taken and refrozen at −80° C. The aliquots may be kept at 4° C. and reused after first thaw, but only within 1-2 weeks. The Recombinant Protein Standard contains a GST-fusion tag that appears at approximately 70 Kda on Western Blot.
The prepared ELISA plate was washed 3× with Wash Buffer (0.05% Tween-20 in PBS). The final wash was removed from the plate and the plate was blotted dry. Blocking Buffer (300 μL) (1% BSA in PBS) was added to each well. The plate was covered with a plate seal and incubated at room temperature for 1 hour. The blocked plate was washed 3× with Wash Buffer, then the final wash was removed and the plate was blotted dry. The previously prepared samples and standards were added (100 μL/well) and the plate was covered with a plate seal and incubated at 4° C. overnight.
The prepared ELISA plate was removed from incubation and allowed to stand at room temperature for 30 minutes, then washed and blotted dry. The Second Antibody (Cell Signaling Rabbit anti-Bmi-1, Cat# 2830) diluted to 1:600 in Blocking Buffer was added (100 μL) to each well, except as needed for background control wells. The plate was covered with a plate seal and incubated for 1.5 hrs at room temperature.
The ELISA plate was washed and blotted dry as previously described. The Third Antibody (Cell Signaling HRP conjugated anti-rabbit IgG (CellSignaling, Cat#:7074) diluted to 1:300 in Blocking Buffer was added (100 μL) to each well, except as needed for background control wells. The plate was incubated for 1 hr at room temperature.
The plate was washed and blotted dry, then a previously prepared TMB substrate (TMB substrate kit, Pierce catalog #34021) (prepared by mixing kit reagents 1:1) (100 μL) was added per well. The plate was incubated for 20-30 minutes at room temperature in the dark, then Stop Solution (2 M sulfuric acid in water) (50 μL) was added per well. The plates were read at OD450 (experimental) and OD570 (reference).

EC50, 0.1 to 3 µM:
Nc1nc(Nc2ccc(C(F)(F)F)cc2)nc(-n2c(C3CC3)nc3cc(F)ccc32)n1 [Cpd 65, 6-(2-cyclopropyl-5-fluoro-1H-benzimidazol-1-yl)-N-[4-(trifluoromethyl)phenyl]-1,3,5-triazine-2,4-diamine]
Nc1nc(Nc2ccc(OC(F)F)c(F)c2)nc(-n2c(C3CC3)nc3cc(F)ccc32)n1 [Cpd 67, 6-(2-cyclopropyl-5-fluoro-1H-benzimidazol-1-yl)-N-[4-(difluoromethoxy)-3-fluorophenyl]-1,3,5-triazine-2,4-diamine]
Nc1nc(Nc2ccc(C(F)(F)F)c(F)c2)nc(-c2c(C(F)(F)F)nc3ccccn23)n1 [Cpd 71, N-[3-fluoro-4-(trifluoromethyl)phenyl]-6-[2-(trifluoromethyl)imidazo[1,2-a]pyridin-3-yl]-1,3,5-triazine-2,4-diamine]

EC50, 0.01 to 0.1 µM:
CCc1nc2cc(F)ccc2n1-c1nc(N)nc(Nc2ccc(OC(F)F)cc2)n1 [Cpd 59, N-[4-(difluoromethoxy)phenyl]-6-(2-ethyl-5-fluoro-1H-benzimidazol-1-yl)-1,3,5-triazine-2,4-diamine]
CCc1nc2cc(F)ccc2n1-c1nc(N)nc(Nc2ccc(OC(F)F)c(F)c2)n1 [Cpd 60, N-[4-(difluoromethoxy)-3-fluorophenyl]-6-(2-ethyl-5-fluoro-1H-benzimidazol-1-yl)-1,3,5-triazine-2,4-diamine]
Nc1nc(Nc2ccc(C(F)(F)F)cc2)nc(-c2c(C(F)(F)F)nc3ccccn23)n1 [Cpd 61, 6-[2-(trifluoromethyl)imidazo[1,2-a]pyridin-3-yl]-N-[4-(trifluoromethyl)phenyl]-1,3,5-triazine-2,4-diamine]
Nc1nc(Nc2ccc(C(F)(F)F)cc2)nc(-n2c(C3CC3)nc3ccc(F)cc32)n1 [Cpd 62, 6-(2-cyclopropyl-6-fluoro-1H-benzimidazol-1-yl)-N-[4-(trifluoromethyl)phenyl]-1,3,5-triazine-2,4-diamine]
Nc1nc(Nc2ccc(OC(F)F)cc2)nc(-n2c(C3CC3)nc3ccc(F)cc32)n1 [Cpd 63, 6-(2-cyclopropyl-6-fluoro-1H-benzimidazol-1-yl)-N-[4-(difluoromethoxy)phenyl]-1,3,5-triazine-2,4-diamine]
Nc1nc(Nc2ccc(OC(F)F)c(F)c2)nc(-n2c(C3CC3)nc3ccc(F)cc32)n1 [Cpd 64, 6-(2-cyclopropyl-6-fluoro-1H-benzimidazol-1-yl)-N-[4-(difluoromethoxy)-3-fluorophenyl]-1,3,5-triazine-2,4-diamine]
Nc1nc(Nc2ccc(OC(F)F)cc2)nc(-n2c(C3CC3)nc3cc(F)ccc32)n1 [Cpd 66, 6-(2-cyclopropyl-5-fluoro-1H-benzimidazol-1-yl)-N-[4-(difluoromethoxy)phenyl]-1,3,5-triazine-2,4-diamine]
CCc1nc2c(F)cccc2n1-c1nc(N)nc(Nc2ccc(C(F)(F)F)cc2)n1 [Cpd 68, 6-(2-ethyl-4-fluoro-1H-benzimidazol-1-yl)-N-[4-(trifluoromethyl)phenyl]-1,3,5-triazine-2,4-diamine]
CCc1nc2c(F)cccc2n1-c1nc(N)nc(Nc2ccc(OC(F)F)cc2)n1 [Cpd 69, N-[4-(difluoromethoxy)phenyl]-6-(2-ethyl-4-fluoro-1H-benzimidazol-1-yl)-1,3,5-triazine-2,4-diamine]
CCc1nc2c(F)cccc2n1-c1nc(N)nc(Nc2ccc(OC(F)F)c(F)c2)n1 [Cpd 70, N-[4-(difluoromethoxy)-3-fluorophenyl]-6-(2-ethyl-4-fluoro-1H-benzimidazol-1-yl)-1,3,5-triazine-2,4-diamine]
Nc1nc(Nc2ccc(OC(F)F)cc2)nc(-c2c(C(F)(F)F)nc3ccccn23)n1 [Cpd 72, N-[4-(difluoromethoxy)phenyl]-6-[2-(trifluoromethyl)imidazo[1,2-a]pyridin-3-yl]-1,3,5-triazine-2,4-diamine]

— US9975878B2, “Substituted triazine BMI-1 inhibitors” (PTC Therapeutics, Inc., priority 2013, dated 2018)
